Results published in patent US20050120493A1, “Process for exchanging the anions of cationic compounds” (priority 2002, published 2005).

Experiment: solubility in water of the dye salts before and after anion exchange
Format: physicochemical
Conditions: salt form of the cationic dye as given per example

Row | Compound | water solubility
1 | Cn1cc[n+](C)c1N=Nc1ccc(N)cc1.[Cl-] | 3.7%
2 | COc1ccc(Nc2ccc(/N=N/c3n(C)cc[n+]3C)cc2)cc1.[Cl-] | 0.35%
3 | CCN(CC)c1ccc2nc3ccc(=[N+](CC)CC)cc-3oc2c1 | less than 0.4%
4 | Cn1cc[n+](C)c1/N=N/c1ccc(NCCCCCCNc2ccc(/N=N/c3n(C)cc[n+]3C)cc2)cc1.[Cl-].[Cl-] | < 0.03%
